In the kinase profiling compilation of Christmann-Franck et al. (2016):

Key:
Test in all cases: KINOMEscan competition binding
Details in all cases: compound 10.0 µM
[1] = tested on: ABL1 (human), P00519 [F317I]
[2] = tested on: ABL1 (human), P00519 [F317L]
[3] = tested on: BMX (human), P51813 [V600E]
[4] = tested on: EGFR (human), P00533 [A750P; 747-749 del]
[5] = tested on: EGFR (human), P00533 [L858R]
[6] = tested on: FLT3 (human), P36888 [D835Y]
[7] = tested on: LRRK2 (human), Q5S007 [G2019S]
[8] = tested on: MET (human), P08581 [M1250T]
[9] = tested on: PIK3CA (human), P42336 [E542K]
[10] = tested on: PIK3CA (human), P42336 [H1047L]
[11] = tested on: PIK3CA (human), P42336 [M1043I]
[12] = tested on: RET (human), P07949 [V804L]
[13] = tested on: FGFR3 (human), P22607 [G697C]
[14] = tested on: KIT (human), P10721 [A829P]
[15] = tested on: EGFR (human), P00533 [G719C]

Chain of PIK3CA (human), P42336 [E542K] (P42336 whole entry E542K, looked up): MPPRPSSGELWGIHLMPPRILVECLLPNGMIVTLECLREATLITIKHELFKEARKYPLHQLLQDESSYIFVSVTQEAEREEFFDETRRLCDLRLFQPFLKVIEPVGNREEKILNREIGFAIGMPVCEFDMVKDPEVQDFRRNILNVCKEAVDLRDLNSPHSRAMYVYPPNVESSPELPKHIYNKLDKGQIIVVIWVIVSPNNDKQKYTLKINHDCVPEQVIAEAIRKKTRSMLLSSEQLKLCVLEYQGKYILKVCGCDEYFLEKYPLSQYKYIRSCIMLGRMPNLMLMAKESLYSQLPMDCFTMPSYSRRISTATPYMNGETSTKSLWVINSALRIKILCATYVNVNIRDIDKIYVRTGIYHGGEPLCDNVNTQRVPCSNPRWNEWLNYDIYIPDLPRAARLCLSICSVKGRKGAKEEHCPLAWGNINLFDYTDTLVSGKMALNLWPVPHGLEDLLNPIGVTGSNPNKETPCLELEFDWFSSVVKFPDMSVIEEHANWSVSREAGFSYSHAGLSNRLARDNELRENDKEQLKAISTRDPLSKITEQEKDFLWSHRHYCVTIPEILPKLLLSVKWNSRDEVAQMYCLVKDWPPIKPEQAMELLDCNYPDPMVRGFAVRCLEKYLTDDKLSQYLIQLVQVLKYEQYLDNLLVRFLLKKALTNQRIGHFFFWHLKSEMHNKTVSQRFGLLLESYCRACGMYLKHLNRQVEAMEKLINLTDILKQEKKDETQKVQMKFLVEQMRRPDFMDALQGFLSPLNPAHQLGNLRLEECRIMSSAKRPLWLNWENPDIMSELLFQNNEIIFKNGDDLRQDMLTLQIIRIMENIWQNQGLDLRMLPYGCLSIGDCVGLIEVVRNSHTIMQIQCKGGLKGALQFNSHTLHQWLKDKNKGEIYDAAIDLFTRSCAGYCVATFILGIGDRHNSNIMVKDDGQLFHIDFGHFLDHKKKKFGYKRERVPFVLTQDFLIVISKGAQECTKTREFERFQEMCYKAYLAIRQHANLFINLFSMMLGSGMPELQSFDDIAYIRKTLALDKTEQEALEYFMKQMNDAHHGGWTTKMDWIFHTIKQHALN
Chain of BMX (human), P51813 [V600E] (P51813 whole entry, looked up, stated change not applied): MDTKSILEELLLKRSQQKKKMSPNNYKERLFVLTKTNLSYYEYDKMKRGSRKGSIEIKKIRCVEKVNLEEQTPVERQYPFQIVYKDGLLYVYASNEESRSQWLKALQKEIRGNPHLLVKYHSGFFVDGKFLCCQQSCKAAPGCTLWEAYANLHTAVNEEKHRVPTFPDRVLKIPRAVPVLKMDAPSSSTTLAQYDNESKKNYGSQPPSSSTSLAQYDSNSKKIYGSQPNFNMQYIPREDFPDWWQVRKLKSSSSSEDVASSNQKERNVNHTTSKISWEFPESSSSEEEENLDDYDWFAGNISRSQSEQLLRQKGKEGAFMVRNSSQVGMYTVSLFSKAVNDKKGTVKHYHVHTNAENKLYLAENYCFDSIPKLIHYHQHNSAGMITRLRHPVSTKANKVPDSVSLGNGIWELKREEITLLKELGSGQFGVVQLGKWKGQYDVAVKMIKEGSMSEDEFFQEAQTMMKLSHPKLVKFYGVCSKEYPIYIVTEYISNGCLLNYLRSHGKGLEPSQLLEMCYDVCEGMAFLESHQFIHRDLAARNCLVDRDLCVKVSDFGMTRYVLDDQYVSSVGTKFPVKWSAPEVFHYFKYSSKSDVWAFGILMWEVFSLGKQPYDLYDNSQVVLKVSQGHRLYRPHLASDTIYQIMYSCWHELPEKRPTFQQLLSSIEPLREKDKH
Chain of ABL1 (human), P00519 [F317L] (P00519 whole entry F317L, looked up): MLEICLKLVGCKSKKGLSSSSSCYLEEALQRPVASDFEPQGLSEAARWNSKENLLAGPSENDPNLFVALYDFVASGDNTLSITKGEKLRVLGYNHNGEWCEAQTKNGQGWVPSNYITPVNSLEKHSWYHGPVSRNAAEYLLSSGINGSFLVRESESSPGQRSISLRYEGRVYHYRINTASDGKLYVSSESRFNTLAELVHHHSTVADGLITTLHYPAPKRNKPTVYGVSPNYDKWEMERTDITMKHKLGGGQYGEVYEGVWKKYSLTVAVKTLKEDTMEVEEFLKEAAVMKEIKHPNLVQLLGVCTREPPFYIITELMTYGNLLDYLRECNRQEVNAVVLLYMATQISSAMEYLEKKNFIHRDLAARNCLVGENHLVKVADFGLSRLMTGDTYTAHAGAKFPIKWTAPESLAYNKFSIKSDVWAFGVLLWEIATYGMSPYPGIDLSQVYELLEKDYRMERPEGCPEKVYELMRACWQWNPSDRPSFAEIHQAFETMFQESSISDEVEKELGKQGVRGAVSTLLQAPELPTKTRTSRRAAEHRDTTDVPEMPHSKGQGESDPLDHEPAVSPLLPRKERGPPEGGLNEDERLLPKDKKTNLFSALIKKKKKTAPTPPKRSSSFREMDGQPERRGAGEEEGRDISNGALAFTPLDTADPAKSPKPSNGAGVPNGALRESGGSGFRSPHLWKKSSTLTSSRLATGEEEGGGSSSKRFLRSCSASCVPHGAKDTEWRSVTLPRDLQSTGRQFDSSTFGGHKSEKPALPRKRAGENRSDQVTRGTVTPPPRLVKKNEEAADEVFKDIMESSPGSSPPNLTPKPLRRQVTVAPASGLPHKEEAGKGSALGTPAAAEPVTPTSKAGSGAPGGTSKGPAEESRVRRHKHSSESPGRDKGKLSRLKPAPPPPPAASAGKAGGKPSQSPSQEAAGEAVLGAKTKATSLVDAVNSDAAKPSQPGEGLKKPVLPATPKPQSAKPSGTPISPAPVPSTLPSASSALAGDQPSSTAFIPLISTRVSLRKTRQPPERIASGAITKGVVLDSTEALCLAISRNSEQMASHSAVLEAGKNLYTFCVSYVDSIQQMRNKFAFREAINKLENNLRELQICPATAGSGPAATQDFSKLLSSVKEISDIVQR
Chain of RET (human), P07949 [V804L] (P07949 whole entry V804L, looked up): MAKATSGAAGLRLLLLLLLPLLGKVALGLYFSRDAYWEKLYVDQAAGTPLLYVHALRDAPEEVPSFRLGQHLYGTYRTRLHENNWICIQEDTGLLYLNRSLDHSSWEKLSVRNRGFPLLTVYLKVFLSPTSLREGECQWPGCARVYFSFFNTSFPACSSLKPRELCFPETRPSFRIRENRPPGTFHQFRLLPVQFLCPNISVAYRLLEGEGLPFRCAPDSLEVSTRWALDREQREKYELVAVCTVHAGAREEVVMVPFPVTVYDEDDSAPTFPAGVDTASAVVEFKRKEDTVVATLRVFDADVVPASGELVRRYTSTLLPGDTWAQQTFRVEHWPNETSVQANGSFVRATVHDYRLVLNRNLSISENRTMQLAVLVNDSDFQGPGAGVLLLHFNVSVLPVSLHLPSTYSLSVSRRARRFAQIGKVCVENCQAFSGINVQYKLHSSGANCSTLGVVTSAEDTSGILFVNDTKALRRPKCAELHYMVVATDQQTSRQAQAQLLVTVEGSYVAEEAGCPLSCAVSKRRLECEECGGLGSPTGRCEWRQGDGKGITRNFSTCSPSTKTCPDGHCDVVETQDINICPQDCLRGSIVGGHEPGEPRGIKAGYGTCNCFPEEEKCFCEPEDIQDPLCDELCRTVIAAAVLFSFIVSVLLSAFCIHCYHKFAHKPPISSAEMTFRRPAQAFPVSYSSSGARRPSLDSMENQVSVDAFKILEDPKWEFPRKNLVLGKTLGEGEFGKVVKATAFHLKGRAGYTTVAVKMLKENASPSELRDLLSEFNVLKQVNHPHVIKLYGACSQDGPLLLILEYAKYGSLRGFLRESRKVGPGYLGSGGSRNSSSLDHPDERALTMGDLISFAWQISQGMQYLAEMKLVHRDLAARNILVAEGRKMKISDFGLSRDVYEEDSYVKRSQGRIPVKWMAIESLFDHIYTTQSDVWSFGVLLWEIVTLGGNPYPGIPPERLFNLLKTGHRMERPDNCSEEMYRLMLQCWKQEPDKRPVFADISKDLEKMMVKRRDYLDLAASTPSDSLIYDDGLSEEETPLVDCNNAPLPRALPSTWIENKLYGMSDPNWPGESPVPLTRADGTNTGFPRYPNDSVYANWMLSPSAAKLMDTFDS
Chain of PIK3CA (human), P42336 [H1047L] (P42336 whole entry H1047L, looked up): as the sequence (P42336 whole entry E542K, looked up) above, with K542E, H1047L counted along it
Chain of ABL1 (human), P00519 [F317I] (P00519 whole entry F317I, looked up): as the sequence (P00519 whole entry F317L, looked up) above, with L317I counted along it
Chain of FGFR3 (human), P22607 [G697C] (P22607 whole entry G697C, looked up): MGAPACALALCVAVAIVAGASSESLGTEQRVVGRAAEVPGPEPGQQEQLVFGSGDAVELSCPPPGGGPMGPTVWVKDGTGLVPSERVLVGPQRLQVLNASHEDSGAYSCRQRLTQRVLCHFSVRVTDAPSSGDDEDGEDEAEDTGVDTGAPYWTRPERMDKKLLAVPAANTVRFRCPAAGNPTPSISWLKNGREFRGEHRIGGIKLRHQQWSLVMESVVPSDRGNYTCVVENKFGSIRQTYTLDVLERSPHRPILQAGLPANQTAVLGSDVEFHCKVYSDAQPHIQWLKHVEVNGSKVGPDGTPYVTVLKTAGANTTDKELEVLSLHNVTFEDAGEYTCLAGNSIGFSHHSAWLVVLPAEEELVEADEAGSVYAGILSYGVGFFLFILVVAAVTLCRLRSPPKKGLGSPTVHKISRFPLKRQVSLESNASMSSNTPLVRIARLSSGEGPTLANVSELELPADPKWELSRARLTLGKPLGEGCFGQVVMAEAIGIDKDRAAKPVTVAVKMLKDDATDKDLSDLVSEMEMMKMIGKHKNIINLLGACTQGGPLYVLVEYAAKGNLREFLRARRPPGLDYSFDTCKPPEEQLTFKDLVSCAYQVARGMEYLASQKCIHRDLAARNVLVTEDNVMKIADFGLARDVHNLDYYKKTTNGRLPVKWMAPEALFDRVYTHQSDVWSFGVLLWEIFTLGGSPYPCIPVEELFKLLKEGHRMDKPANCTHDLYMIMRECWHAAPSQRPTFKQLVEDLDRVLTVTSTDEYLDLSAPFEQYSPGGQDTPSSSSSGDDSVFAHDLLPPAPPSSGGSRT
Chain of PIK3CA (human), P42336 [M1043I] (P42336 whole entry M1043I, looked up): as the sequence (P42336 whole entry E542K, looked up) above, with K542E, M1043I counted along it

Row | SMILES | kinase still bound, per cent of control [1] [%] | kinase still bound, per cent of control [2] [%] | kinase still bound, per cent of control [3] [%] | kinase still bound, per cent of control [4] [%] | kinase still bound, per cent of control [5] [%] | kinase still bound, per cent of control [6] [%] | kinase still bound, per cent of control [7] [%] | kinase still bound, per cent of control [8] [%] | kinase still bound, per cent of control [9] [%] | kinase still bound, per cent of control [10] [%] | kinase still bound, per cent of control [11] [%] | kinase still bound, per cent of control [12] [%] | kinase still bound, per cent of control [13] [%] | kinase still bound, per cent of control [14] [%] | kinase still bound, per cent of control [15] [%]
1 | CCC(=O)N1CCN(c2ccc(-n3c(=O)ccc4cnc5ccc(-c6cnc7ccccc7c6)cc5c43)cc2C(F)(F)F)CC1 | 100 | 100 | 88 | 100 | 100 | 16 | 99 | 79 | 1 | 2.6 | 8.6 | 66 |  |  | 
2 | N#CCNC(=O)c1ccc(-c2ccnc(Nc3ccc(N4CCOCC4)cc3)n2)cc1 | 55 | 100 | 56 | 100 | 100 |  | 41 | 100 | 100 | 100 | 100 | 64 | 79 | 72 | 
3 | COc1cc2ncn(-c3cc(OCc4ccccc4C(F)(F)F)c(C(N)=O)s3)c2cc1OC | 100 | 70 | 92 | 50 | 47 | 26 | 60 | 31 | 100 | 73 |  | 24 | 26 | 57 | 94
